Test results as given in article PMC6591272, “Midostaurin Reverses ABCB1-Mediated Multidrug Resistance, an in vitro Study” (Frontiers in Oncology, 2019).

Columns and labels:
[1] = biological target: T1, ABCB1 transporter (P-gp/MDR1) (Homo sapiens, UniProt P08183); test: vanadate-sensitive ATPase assay in ABCB1-overexpressing membranes; supported by [3H]-paclitaxel efflux inhibition in KB-C2 cells; format: biochemical; design: cell membranes that overexpressed ABCB1
[2] = biological target: T1, ABCB1 transporter (P-gp/MDR1)

T1 sequence (P08183 whole entry): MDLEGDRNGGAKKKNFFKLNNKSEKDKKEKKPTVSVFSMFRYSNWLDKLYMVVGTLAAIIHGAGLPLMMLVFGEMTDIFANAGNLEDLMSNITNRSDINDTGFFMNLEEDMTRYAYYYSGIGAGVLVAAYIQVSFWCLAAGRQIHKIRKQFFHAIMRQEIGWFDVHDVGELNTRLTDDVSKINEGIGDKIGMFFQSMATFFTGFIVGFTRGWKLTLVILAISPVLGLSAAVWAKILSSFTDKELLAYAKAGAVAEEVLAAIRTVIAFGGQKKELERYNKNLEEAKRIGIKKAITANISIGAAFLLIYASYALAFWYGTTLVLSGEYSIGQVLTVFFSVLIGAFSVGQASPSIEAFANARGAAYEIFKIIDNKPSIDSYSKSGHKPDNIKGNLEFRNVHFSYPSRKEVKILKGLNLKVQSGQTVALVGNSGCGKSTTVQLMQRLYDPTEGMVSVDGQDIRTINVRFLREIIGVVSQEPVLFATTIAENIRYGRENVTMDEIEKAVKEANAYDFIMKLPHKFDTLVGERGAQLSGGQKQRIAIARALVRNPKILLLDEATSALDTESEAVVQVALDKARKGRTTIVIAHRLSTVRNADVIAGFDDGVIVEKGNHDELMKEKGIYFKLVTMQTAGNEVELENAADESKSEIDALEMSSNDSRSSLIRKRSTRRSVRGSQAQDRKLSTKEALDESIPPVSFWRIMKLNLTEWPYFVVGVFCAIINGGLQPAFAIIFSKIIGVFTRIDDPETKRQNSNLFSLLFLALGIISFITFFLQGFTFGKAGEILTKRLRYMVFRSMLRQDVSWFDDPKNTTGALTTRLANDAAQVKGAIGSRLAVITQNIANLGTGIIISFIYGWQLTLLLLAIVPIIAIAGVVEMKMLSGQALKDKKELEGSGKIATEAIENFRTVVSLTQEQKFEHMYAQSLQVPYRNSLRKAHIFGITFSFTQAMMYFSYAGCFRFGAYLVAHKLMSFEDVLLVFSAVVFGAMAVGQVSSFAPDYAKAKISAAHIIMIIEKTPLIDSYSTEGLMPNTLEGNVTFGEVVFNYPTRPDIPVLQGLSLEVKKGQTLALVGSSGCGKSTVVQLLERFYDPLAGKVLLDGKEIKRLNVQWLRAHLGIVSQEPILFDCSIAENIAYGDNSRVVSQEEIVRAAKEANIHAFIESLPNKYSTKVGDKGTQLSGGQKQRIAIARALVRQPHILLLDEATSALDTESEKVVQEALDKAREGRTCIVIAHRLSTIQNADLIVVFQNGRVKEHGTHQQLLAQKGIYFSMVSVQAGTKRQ

Row | SMILES | IC50 [1] [µM] | [3H]-paclitaxel accumulation and efflux in KB-C2 versus parental KB-3-1 cells [2]
1 | CO[C@@H]1[C@H](N(C)C(=O)c2ccccc2)C[C@H]2O[C@]1(C)n1c3ccccc3c3c4c(c5c6ccccc6n2c5c31)C(=O)NC4 [midostaurin] | 3.1 | 
2 | CC(=O)O[C@H]1C(=O)[C@@]2(C)[C@H]([C@H](OC(=O)c3ccccc3)[C@]3(O)C[C@H](OC(=O)[C@H](O)[C@@H](NC(=O)c4ccccc4)c4ccccc4)C(C)=C1C3(C)C)[C@]1(OC(C)=O)CO[C@@H]1C[C@@H]2O [paclitaxel] |  | midostaurin significantly decreased the efflux level of [^3H]-paclitaxel in ABCB1-overexpressing KB-C2 cells in a dose-dependent manner
